Results on 53 compounds are retold here after the RepoRT retention time repository (doi:10.1021/acs.jafc.0c00879).

This data set in a line: RP, Waters ACQUITY UPLC HSS T3, 150 × 2.1 mm, 1.8 µm, 40 °C, 0.28 mL/min, estimated dead time 1.2 min; A: water + 0.1% formic acid; B: methanol + 0.1% formic acid; gradient (min/%B) 0/0 1/0 3/10 18/40 21/100 25.5/100. The note with it: stereoisomer not certain.

For the compound `CC(C=CC1(O)C(C)=CC(=O)CC1(C)C)=CC(=O)O` (stereo not drawn), the LC retention time is 20.6 min.
On to `O=C(OC1Cc2c(O)cc(O)cc2OC1c1cc(O)c(O)c(O)c1)c1cc(O)c(O)c(O)c1` (stereo not drawn), for which the LC retention time is 15.2 min.
For `COc1cc(-c2oc3cc(O)cc(O)c3c(=O)c2OC2OC(CO)C(O)C(O)C2O)ccc1O` (stereo not drawn), the LC retention time is 20.3 min.
As for `COc1cc(-c2oc3cc(=O)cc4oc(O)c(C=[OH+])c(c2OC2OC(CO)C(O)C(O)C2O)c43)cc(OC)c1O` (stereo not drawn), the LC retention time is 18.6 min.
The value for `O=c1cc2oc(-c3ccc(O)c(O)c3)c(OC3OC(COC(=[OH+])C=Cc4ccc(O)cc4)C(O)C(O)C3O)cc-2c(O)c1` (stereo not drawn) was 20.2 min; that for `COc1cc(-c2oc3cc(O)cc(O)c3c(=O)c2O)ccc1O` was 21.2 min.
The value for `CC(=O)OCC1OC(Oc2cc3c(O)cc(O)cc3[o+]c2-c2cc(O)c(O)c(O)c2)C(O)C(O)C1O` (stereo not drawn) was 16.9 min.
The value for `COc1cc(-c2[o+]c3cc(O)cc(O)c3cc2OC2OC(CO)C(O)C(O)C2O)cc(O)c1O` (stereo not drawn) was 13.3 min; that for `CC(C)(CO)C(O)C(=O)NCCC(=O)O` (stereo not drawn) was 7.04 min; that for `COc1cc(-c2oc3cc(O)cc(O)c3c(=O)c2OC2OC(CO)C(O)C(O)C2O)cc(O)c1O` (stereo not drawn) was 19.6 min.
Consider `COc1cc(-c2[o+]c3cc(O)cc(O)c3cc2OC2OC(COC(=O)C=Cc3ccc(O)cc3)C(O)C(O)C2O)cc(O)c1O` (stereo not drawn), for which the LC retention time was 20.2 min.
With `Oc1cc(O)c2c(c1)OC1(c3ccc(O)c(O)c3)Oc3cc(O)c4c(c3C2C1O)OC(c1ccc(O)c(O)c1)C(O)C4` (stereo not drawn), the LC retention time is 8.34 min.
In the case of `O=c1[nH]c(=O)c2[nH]cnc2[nH]1`, the LC retention time was 3.94 min.
Consider `O=c1c(O)c(-c2ccc(O)cc2)oc2cc(O)cc(O)c12`, for which the LC retention time was 21.2 min.
The value for `COc1cc(-c2oc3cc(O)cc(O)c3c(=O)c2O)cc(OC)c1O` was 21.3 min; that for `NC(Cc1ccccc1)C(=O)O` (stereo not drawn) was 5.95 min.
Then `Cc1cc2nc3c(=O)[nH]c(=O)nc-3n(CC(O)C(O)C(O)CO)c2cc1C` (stereo not drawn), with 14.6 min.
Then `COc1cc(-c2[o+]c3cc(O)cc(O)c3cc2OC2OC(COC(=O)C=Cc3ccc(O)cc3)C(O)C(O)C2O)ccc1O` (stereo not drawn), with 20.4 min.
For the compound `O=C1c2c(O)cc(O)cc2OC(c2ccc(O)cc2)C1O` (stereo not drawn), the LC retention time is 18.6 min.
On to `COc1cc(-c2[o+]c3cc(O)cc(O)c3cc2OC2OC(COC(C)=O)C(O)C(O)C2O)cc(O)c1O` (stereo not drawn), for which the LC retention time is 18.4 min.
For the compound `COc1cc(-c2[o+]c3cc(O)cc(O)c3cc2OC2OC(COC(=O)C=Cc3ccc(O)cc3)C(O)C(O)C2O)cc(OC)c1O` (stereo not drawn), the LC retention time is 20.3 min.
The value for `CC(=O)OCC1OC(Oc2cc3c(O)cc(O)cc3[o+]c2-c2ccc(O)c(O)c2)C(O)C(O)C1O` (stereo not drawn) was 18.1 min; that for `O=c1c(OC2OC(CO)C(O)C(O)C2O)c(-c2ccc(O)cc2)oc2cc(O)cc(O)c12` (stereo not drawn) was 20.2 min; that for `Oc1ccc(C=Cc2cc(O)cc(O)c2)cc1` was 20.4 min.
The value for `COc1cc(-c2[o+]c3cc(O)cc(O)c3cc2OC2OC(COC(C)=O)C(O)C(O)C2O)cc(OC)c1O` (stereo not drawn) was 19.6 min.
Consider `COc1cc(-c2[o+]c3cc(O)cc(O)c3cc2OC2OC(COC(C)=O)C(O)C(O)C2O)ccc1O` (stereo not drawn), for which the LC retention time is 19.5 min.
Then `O=c1oc2c(O)c(O)cc3c(=O)oc4c(O)c(O)cc1c4c23`, with 19.8 min.
As for `NC(Cc1ccc(O)cc1)C(=O)O` (stereo not drawn), the LC retention time was 4.05 min.
`O=c1c(O)c(-c2ccc(O)c(O)c2)oc2cc(O)cc(O)c12`: the LC retention time is 20.8 min.
Then `O=C(O)C1OC(Oc2c(-c3cc(O)c(O)c(O)c3)oc3cc(O)cc(O)c3c2=O)C(O)C(O)C1O` (stereo not drawn), with 16.6 min; and `O=C(O)c1cc(O)c(O)c(O)c1`, with 6.83 min.
Then `CCOC(=O)c1cc(O)c(O)c(O)c1`, with 14.2 min; and `COc1cc(-c2[o+]c3cc(O)cc(O)c3cc2OC2OC(CO)C(O)C(O)C2O)cc(OC)c1O` (stereo not drawn), with 14.8 min; and `COc1cc(-c2[o+]c3cc(O)cc(O)c3cc2OC2OC(CO)C(O)C(O)C2O)ccc1O` (stereo not drawn), with 14.6 min.
Consider `O=C(O)C(O)Cc1c[nH]c2ccccc12` (stereo not drawn), for which the LC retention time was 15.3 min.
As to `O=C(C=Cc1ccc(O)c(O)c1)OC(C(=O)O)C(O)C(=O)O` (stereo not drawn), the LC retention time was 7.71 min.
The value for `O=C1c2c(O)cc(O)cc2OC(c2ccc(O)c(OC3OC(C(=O)O)C(O)C(O)C3O)c2)C1O` (stereo not drawn) was 19 min; that for `OCC1OC(Oc2cc3c(O)cc(O)cc3[o+]c2-c2cc(O)c(O)c(O)c2)C(O)C(O)C1O` (stereo not drawn) was 11.3 min.
Turning to `O=C(O)C1OC(Oc2c(-c3ccc(O)cc3)oc3cc(O)cc(O)c3c2=O)C(O)C(O)C1O` (stereo not drawn), the LC retention time is 20.2 min.
On to `NC(Cc1c[nH]c2ccccc12)C(=O)O` (stereo not drawn), for which the LC retention time is 8.26 min.
`O=C(C=Cc1ccc(O)cc1)OCC1OC(Oc2cc3c(O)cc(O)cc3[o+]c2-c2cc(O)c(O)c(O)c2)C(O)C(O)C1O` (stereo not drawn): the LC retention time is 20 min.
`CCOC(=O)C=Cc1ccc(O)c(O)c1`: the LC retention time was 20.7 min.
The value for `COc1cc(C=CC(=O)OC(C(=O)O)C(O)C(=O)O)ccc1O` (stereo not drawn) was 10.9 min; that for `COc1cc(-c2oc3cc(O)cc(O)c3c(=O)c2O)cc(O)c1O` was 20.9 min; that for `CC(C)C(N)C(=O)O` (stereo not drawn) was 2.07 min.
For `NC(CCC(=O)NC(CS)C(=O)NCC(=O)O)C(=O)O` (stereo not drawn), the LC retention time is 2.46 min.
Take `O=C(OC1Cc2c(O)cc(O)cc2OC1c1ccc(O)c(O)c1)c1cc(O)c(O)c(O)c1` (stereo not drawn): the LC retention time was 14.4 min.
For the compound `O=c1c(OC2OC(CO)C(O)C(O)C2O)c(-c2cc(O)c(O)c(O)c2)oc2cc(O)cc(O)c12` (stereo not drawn), the LC retention time is 17 min.
Take `O=S(=O)(O)c1[nH]c2ccccc2c1CCO`: the LC retention time was 10.5 min.
As for `CC(C)CC(N)C(=O)O` (stereo not drawn), the LC retention time was 4.21 min.
The value for `O=C(O)C1CCCN1` (stereo not drawn) was 1.49 min; that for `COc1cc(-c2oc3cc(O)cc(O)c3c(=O)c2OC2OC(CO)C(O)C(O)C2O)cc(OC)c1O` (stereo not drawn) was 20.4 min; that for `COc1cc(-c2oc3cc(=[OH+])cc4occc(c2OC2OC(CO)C(O)C(O)C2O)c43)cc(OC)c1O` (stereo not drawn) was 17.7 min.
